# Assay results reported in US20120276208A1, “ACUTE COGNITIVE AND MOOD EFFECTS OF PLANT POLYSACCHARIDES IN ADULT HUMAN SUBJECTS” (UNIVERSITY OF SOUTH AUSTRALIA, priority 2011, published 2012).
# Columns and labels:
# [1] = tested on: healthy middle-aged men and women; test: Cognitive Demand Battery: Serial Sevens subtraction task; format: in vivo, human; settings: 4 g oral; at 20 min of battery; vs placebo
# Description: Procedure: Each participant attended the research facility on a single day for a period of 3.5 hours during which they completed 2 testing sessions, 1 baseline test and 1 post-treatment test. All testing took place between 08:00-12:00 and 13:00-18:00. On testing days, participants abstained from consuming any stimulants (i.e., tea, coffee, other caffeine containing products) for 2 hours before their visit. All volunteers were fasted for 2 hours before their visit. Each study day comprised of a practice module, a pre-treatment baseline testing session on the mood and cognitive measures, this was immediately followed by a pre-treatment blood glucose measurement, and administration of treatment. Participants were allocated, using a random number generator randomization code, to one of three treatment conditions: sucrose (icing sugar), placebo (rice flour) and plant saccharides (Ambrotose®Complex). Given the different densities of the three supplement conditions, each treatment was weighed and measured with scoop amounts to provide equated 4 g doses. The supplement was delivered to each participant on a tablespoon with 100 ml of water. […] All data were analyzed using SPSS 17 statistical package as “change from pre dose baseline scores', using Analysis of Variance (ANOVA). […]
# [2] = tested on: healthy middle-aged men and women; test: Rey Auditory-Verbal Learning Test (RAVLT), learning and memory; format: in vivo, human; settings: 4 g oral single dose; mean (SD)
# Description: Procedure: Each participant attended the research facility on a single day for a period of 3.5 hours during which they completed 2 testing sessions, 1 baseline test and 1 post-treatment test. All testing took place between 08:00-12:00 and 13:00-18:00. On testing days, participants abstained from consuming any stimulants (i.e., tea, coffee, other caffeine containing products) for 2 hours before their visit. All volunteers were fasted for 2 hours before their visit. Each study day comprised of a practice module, a pre-treatment baseline testing session on the mood and cognitive measures, this was immediately followed by a pre-treatment blood glucose measurement, and administration of treatment. Participants were allocated, using a random number generator randomization code, to one of three treatment conditions: sucrose (icing sugar), placebo (rice flour) and plant saccharides (Ambrotose®Complex). Given the different densities of the three supplement conditions, each treatment was weighed and measured with scoop amounts to provide equated 4 g doses. The supplement was delivered to each participant on a tablespoon with 100 ml of water. Each participant was instructed by the inventors to carefully consume the powder, without breathing in or out over it, by putting it in their mouth and washing it down with the water provided within 5 minutes. Additional water was provided on request. Participants were then instructed to rest for 30 minutes to allow for absorption. Following the 30 minute absorption time, a finger-capillary blood glucose measurement was taken. The post treatment testing session then commenced with alternate forms of the RAVLT and Cognitive demand battery. Following completion of the testing session, a final blood glucose measurement was taken. […] Learning and Memory: The Rey Auditory-Verbal Learning Test (RAVLT) was used to assess immediate recall, delayed recall, learning and recognition memory. The examiner reads aloud 15 nouns (list A) over five trials and after each trial, participants are asked to recall, in any order, as many of the 15 words as possible. Scores for the 5 trials are summed to produce a measure of immediate recall, the difference between trial 5 and 1 is used as a measure of learning. After a sixth trial consisting of 15 different words (list B) participants are again required to recall the words that were presented in list A (trial 7), and then again after an interval of 60 minutes (trial 8). The scores from trials 7 and 8 are used to produce a measure of delayed recall, the difference between the words recalled in trials 8 and 7 is used as a measure of forgetting, the difference between trial 7 and trial 5 is used as a score of interference. After trial 8, participants are presented with a sheet of 50 words containing the words from lists A and B among 20 distracter words. Participants are asked to recognize the words from lists A and B and indicate the list they came from. Each word correctly identified is awarded one point producing a measure of recognition. Statistical Analysis: The primary outcomes were memory performance, mood and performance on the Cognitive Demand Battery (CDB) and the subjective ratings of mental fatigue. All data were analyzed using SPSS 17 statistical package as “change from pre dose baseline scores', using Analysis of Variance (ANOVA). To test for chance baseline differences which may have skewed change-from-baseline scores, prior to the primary statistical analysis, one-way ANOVA's with Bonferroni correction, were run all on all baseline demographics, general mood and well-being measures, and all pre-dose baseline measures to determine any potential covariates in outcomes.
structure (smiles),measurement,setting,value
"OC[C@H]1O[C@@](CO)(O[C@H]2O[C@H](CO)[C@@H](O)[C@H](O)[C@H]2O)[C@@H](O)[C@@H]1O [Sucrose, sucrose]","Serial 7s number of correct answers, pairwise comparison",[1],making significantly more correct responses than the placebo group (p=0.04)
same,"RAVLT Forgetting (trial 8-trial7), post-dose change from baseline score",[2],−1.69 (3.06)
same,"RAVLT Interference (trial 7-trial 5), post-dose change from baseline score",[2],−1.34 (2.18)
same,"RAVLT Learning (trial 5-trial1), post-dose change from baseline score",[2],0.07 (2.78)
same,"RAVLT Recog A, post-dose change from baseline score",[2],−2.38 (2.46)
same,"RAVLT Recog B, post-dose change from baseline score",[2],−3.38 (3.55)
same,"RAVLT Sum Immediate Recall, post-dose change from baseline score",[2],−1.88 (5.83)
same,"RAVLT Sum Recognition, post-dose change from baseline score",[2],−5.76 (4.91)
same,"RAVLT Sum delayed recall, post-dose change from baseline score",[2],−4.76 (4.18)
same,"RAVLT Trial 1, post-dose change from baseline score",[2],−0.26 (2.23)
same,"RAVLT Trial 2, post-dose change from baseline score",[2],−0.57 (2.13)
same,"RAVLT Trial 3, post-dose change from baseline score",[2],−0.42 (1.83)
same,"RAVLT Trial4, post-dose change from baseline score",[2],−0.42 (1.72)
same,"RAVLT Trial 5, post-dose change from baseline score",[2],−0.19 (1.72)
same,"RAVLT Trial 6 (List B), post-dose change from baseline score",[2],−0.84 (2.16)
same,"RAVLT Trial 7, post-dose change from baseline score",[2],−1.53 (2.37)
same,"RAVLT Trial 8, post-dose change from baseline score",[2],−3.23 (2.80)
